Test system: 475296-252-R-J1-PDC spheroid viability
Test: Anticancer human tumor 475296-252-R-J1-PDC patient-derived rectal carcinoma cell line growth inhibition [PI3K]
Conditions: spheroids with HUVEC and MSC; for IC50: curve of first compound; for viability, T/C: stronger effect = lower value
In short: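 Spheroid viability read-out. Co-cultures contained the tumor line plus HUVEC and human MSCs. Each agent was paired with a PI3K inhibitor (inavolisib, alpelisib, duvelisib, copanlisib) across half-log dilutions starting at clinical Cmax, or at 10 microM when Cmax was unknown.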

[1] = second compound 0.00316 µM, first compound 0.0316 µM
[2] = second compound 0.00316 µM, first compound 0.1 µM
[3] = second compound 0.00316 µM, first compound 0.316 µM
[4] = second compound 0.00316 µM, first compound 1 µM
[5] = second compound 0.00316 µM, first compound 3.16 µM
[6] = second compound 0.00316 µM, first compound 10 µM
[7] = second compound 0.01 µM, first compound 0.0316 µM
[8] = second compound 0.01 µM, first compound 0.1 µM
[9] = second compound 0.01 µM, first compound 0.316 µM
[10] = second compound 0.01 µM, first compound 1 µM
[11] = second compound 0.01 µM, first compound 3.16 µM
[12] = second compound 0.01 µM, first compound 10 µM
[13] = second compound 0.0316 µM, first compound 0.0316 µM
[14] = second compound 0.0316 µM, first compound 0.1 µM
[15] = second compound 0.0316 µM, first compound 0.316 µM
[16] = second compound 0.0316 µM, first compound 1 µM
[17] = second compound 0.0316 µM, first compound 3.16 µM
[18] = second compound 0.0316 µM, first compound 10 µM
[19] = second compound 0.1 µM, first compound 0.0316 µM
[20] = second compound 0.1 µM, first compound 0.1 µM
[21] = second compound 0.1 µM, first compound 0.316 µM
[22] = second compound 0.1 µM, first compound 1 µM
[23] = second compound 0.1 µM, first compound 3.16 µM
[24] = second compound 0.1 µM, first compound 10 µM
[25] = second compound 0.316 µM, first compound 0.0316 µM
[26] = second compound 0.316 µM, first compound 0.1 µM
[27] = second compound 0.316 µM, first compound 0.316 µM
[28] = second compound 0.316 µM, first compound 1 µM
[29] = second compound 0.316 µM, first compound 3.16 µM
[30] = second compound 0.316 µM, first compound 10 µM
[31] = second compound 1 µM, first compound 0.0316 µM
[32] = second compound 1 µM, first compound 0.1 µM
[33] = second compound 1 µM, first compound 0.316 µM
[34] = second compound 1 µM, first compound 1 µM
[35] = second compound 1 µM, first compound 3.16 µM
[36] = second compound 1 µM, first compound 10 µM
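Further: spheroids exposed to agents for seven days before readout.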

In the case of `Cn1nccc1Nc1nccc(-c2ccn(C(CO)c3ccc(Cl)c(F)c3)c(=O)c2)n1` (stereo unspecified) + CC(Nc1ccc2c(c1)OCCn1cc(N3C(=O)OCC3C(F)F)nc1-2)C(N)=O, the IC50 (second compound 0.00316 µM) is reported as greater than 10 µM, the IC50 (second compound 0.01 µM) is reported as greater than 10 µM and the IC50 (second compound 0.0316 µM) is reported as greater than 10 µM. The IC50 (second compound 0.1 µM) was greater than 10 µM, the IC50 (second compound 0.316 µM) was 6.42 µM and the IC50 (second compound 1 µM) was 3.52 µM. The viability, T/C [1] was 92.9%, the viability, T/C [2] was 92.8% and the viability, T/C [3] was 99.3%. The viability, T/C [4] was 91.6%, the viability, T/C [5] was 90.3% and the viability, T/C [6] was 80.9%. For the same compound, the viability, T/C [7] was 96.8%, the viability, T/C [8] was 97.9% and the viability, T/C [9] was 94.4%. It also gave a viability, T/C [10] of 89.1%, a viability, T/C [11] of 92.1% and a viability, T/C [12] of 74%. For the same compound, the viability, T/C [13] was 101%, the viability, T/C [14] was 105% and the viability, T/C [15] was 95.7%. For the same compound, the viability, T/C [16] was 85.8%, the viability, T/C [17] was 82.9% and the viability, T/C [18] was 74.7%. For the same compound, the viability, T/C [19] was 87.6%, the viability, T/C [20] was 94.7% and the viability, T/C [21] was 76.8%. It also gave a viability, T/C [22] of 83.7%, a viability, T/C [23] of 73.3% and a viability, T/C [24] of 58.1%. The viability, T/C [25] was 81.1%, the viability, T/C [26] was 87.4% and the viability, T/C [27] was 83.1%. For the same compound, the viability, T/C [28] was 77.2%, the viability, T/C [29] was 61.1% and the viability, T/C [30] was 43.1%. The viability, T/C [31] was 84.1%, the viability, T/C [32] was 81% and the viability, T/C [33] was 87.1%. For the same compound, the viability, T/C [34] was 67.9%, the viability, T/C [35] was 53.3% and the viability, T/C [36] was 31.4%.
Compound `C[C@@H](NC(=O)c1ncnc(N)c1Cl)c1ncc(C(=O)Nc2cc(C(F)(F)F)c(Cl)cn2)s1` + CC(Nc1ccc2c(c1)OCCn1cc(N3C(=O)OCC3C(F)F)nc1-2)C(N)=O has an IC50 (second compound 0.00316 µM) greater than 10 µM, an IC50 (second compound 0.01 µM) greater than 10 µM and an IC50 (second compound 0.0316 µM) greater than 10 µM. For the same compound, the IC50 (second compound 0.1 µM) was greater than 10 µM, the IC50 (second compound 0.316 µM) was greater than 10 µM and the IC50 (second compound 1 µM) was greater than 10 µM. It also gave a viability, T/C [1] of 98.9%, a viability, T/C [2] of 84% and a viability, T/C [3] of 99.5%. It also gave a viability, T/C [4] of 108%, a viability, T/C [5] of 93.8% and a viability, T/C [6] of 90%. The viability, T/C [7] was 95%, the viability, T/C [8] was 76% and the viability, T/C [9] was 103%. For the same compound, the viability, T/C [10] was 103%, the viability, T/C [11] was 108% and the viability, T/C [12] was 89%. For the same compound, the viability, T/C [13] was 80.3%, the viability, T/C [14] was 102% and the viability, T/C [15] was 100%. It also gave a viability, T/C [16] of 116%, a viability, T/C [17] of 96.7% and a viability, T/C [18] of 79.3%. The viability, T/C [19] was 90.3%, the viability, T/C [20] was 93.1% and the viability, T/C [21] was 102%. The viability, T/C [22] was 93.8%, the viability, T/C [23] was 103% and the viability, T/C [24] was 69%. The viability, T/C [25] was 87.7%, the viability, T/C [26] was 85.9% and the viability, T/C [27] was 91.7%. It also gave a viability, T/C [28] of 93.6%, a viability, T/C [29] of 84.5% and a viability, T/C [30] of 76.6%. It also gave a viability, T/C [31] of 77.7%, a viability, T/C [32] of 84.6% and a viability, T/C [33] of 95.4%. For the same compound, the viability, T/C [34] was 93%, the viability, T/C [35] was 83% and the viability, T/C [36] was 63.6%.
`C=CC(=O)N1CCN(c2nc(=O)n(-c3c(C)ccnc3C(C)C)c3nc(-c4c(O)cccc4F)c(F)cc23)C(C)C1` (stereo unspecified) + CC(Nc1ncnc2nc[nH]c12)c1cc2cccc(Cl)c2c(=O)n1-c1ccccc1 gave an IC50 (second compound 0.0316 µM) greater than 10 µM, an IC50 (second compound 0.1 µM) greater than 10 µM and an IC50 (second compound 0.316 µM) greater than 10 µM. The IC50 (second compound 1 µM) was greater than 10 µM, the IC50 (second compound 3.16 µM) was greater than 10 µM and the IC50 (second compound 10 µM) was greater than 10 µM. It also gave a viability, T/C [13] of 110%, a viability, T/C [14] of 98.7% and a viability, T/C [15] of 103%. For the same compound, the viability, T/C [16] was 89%, the viability, T/C [17] was 102% and the viability, T/C [18] was 103%. The viability, T/C [19] was 95.7%, the viability, T/C [20] was 92% and the viability, T/C [21] was 105%. It also gave a viability, T/C [22] of 87.9%, a viability, T/C [23] of 109% and a viability, T/C [24] of 101%. For the same compound, the viability, T/C [25] was 93.9%, the viability, T/C [26] was 90.2% and the viability, T/C [27] was 87.4%. The viability, T/C [28] was 96%, the viability, T/C [29] was 106% and the viability, T/C [30] was 116%. For the same compound, the viability, T/C [31] was 95.3%, the viability, T/C [32] was 97.2% and the viability, T/C [33] was 91.8%. For the same compound, the viability, T/C [34] was 92.1%, the viability, T/C [35] was 106% and the viability, T/C [36] was 93.5%. For the same compound, the viability, T/C (second compound 3.16 µM, first compound 0.0316 µM) was 96.2%, the viability, T/C (second compound 3.16 µM, first compound 0.1 µM) was 92.9% and the viability, T/C (second compound 3.16 µM, first compound 0.316 µM) was 99.4%. For the same compound, the viability, T/C (second compound 3.16 µM, first compound 1 µM) was 107%, the viability, T/C (second compound 3.16 µM, first compound 3.16 µM) was 103% and the viability, T/C (second compound 3.16 µM, first compound 10 µM) was 90.2%. The viability, T/C (second compound 10 µM, first compound 0.0316 µM) was 83.8%, the viability, T/C (second compound 10 µM, first compound 0.1 µM) was 91.9% and the viability, T/C (second compound 10 µM, first compound 0.316 µM) was 86.9%. For the same compound, the viability, T/C (second compound 10 µM, first compound 1 µM) was 80.7%, the viability, T/C (second compound 10 µM, first compound 3.16 µM) was 95.8% and the viability, T/C (second compound 10 µM, first compound 10 µM) was 95.6%.

Reference: PubChem BioAssay AID1963980 (Molecular Pharmacology Branch, DTP, NCI, 2024)
